Reference: paper PMC6754432, “Radiochemical examination of transthyretin (TTR) brain penetration assisted by iododiflunisal, a TTR tetramer stabilizer and a new candidate drug for AD” (Scientific Reports, 2019)

Legend:
[1] = Ex vivo biodistribution by dissection and gamma counting after intravenous administration; assay type: in vivo; details: i.v., mice
Protocol: The biodistribution of [^131I]TTR after intravenous administration in wild type mice was first investigated. With that aim, animals (n = 3 per time point) were administered with the radiotracer and sacrificed by exsanguination at pre-defined time points. Major organs were harvested together with blood and urine and the amount of radioactivity was determined by gamma counting. (Fig. 2, red bars).
Animals (n = 3 per compound and time point) were anesthetized with isoflurane 5% in pure oxygen and a solution containing [^131I]TTR, [^131I]IDIF, [^131I]TTR-IDIF complex or TTR-[^131I]IDIF complex (0.9 ± 0.4 MBq/120 μl) was injected through one of the lateral tail veins. Animals were recovered from anaesthesia and at pre-determined time points (t = 5, and 15 min and 1, 6 and 24 h), animals were sacrificed by perfusion using saline solution and kidneys, spleen, liver, small intestine, and brain were quickly removed and rinsed with water. The amount of activity in each organ was measured in an automatic gamma counter (2470 Wizard, PerkinElmer). Urine and blood samples were obtained just before perfusion. Part of the blood was processed to separate the plasma, which was also counted in the gamma counter.
For dissection and gamma counting experiments to assess biodistribution, values obtained for different compounds at each time point and organ were compared using t-student test, comparison of two independent means, using the GraphPad Prism software (version 7.03).

TTR = target: T1, TTR (Homo sapiens, UniProt P02766); assay: Displacement of bound [131I]IDIF from TTR-[131I]IDIF complex by non-labeled IDIF; assay type: binding; details: concentrations over 50 μM of IDIF, TTR complex 0.11 μM, overnight 4 °C
T1 construct: made in house
Protocol: Likewise, the preparation of [^131I]TTR-IDIF was carried out under adequate conditions to ensure that all the [^131I]TTR was stabilized with IDIF. This is extremely important because the separation of [^131I]TTR from [^131I]TTR-IDIF is unfeasible using chromatographic techniques. […] It was observed that a concentration of IDIF = 50 µM displaced > 99% of bound [^131I]IDIF.
First, the TTR/IDIF relative amount to achieve complete formation of the complex was determined. With that aim, six 100 μL aliquots of the [^131I]IDIF-TTR complex prepared as described above were incubated overnight (T = 4 °C) with different amounts of non-radioactive IDIF in 100 μL TNE buffer (final concentrations of IDIF = 0.88, 2.63, 8.76, 17.5, 52.5 and 175 μM, respectively; final concentration of TTR as TTR-[^131I]IDIF complex = 0.11 μM). After incubation, the samples were eluted through illustra^TM NAP-5 columns (GE Healthcare, USA) and radioactivity corresponding to the collected fractions of free [^131I]IDIF and TTR-[^131I]IDIF complex were compared to determine the proportion of [^131I]IDIF free and bound to TTR. For concentrations over 50 μM of IDIF, the displacement was > 97%.

| SMILES | percentage of injected dose per gram of blood ([1]; blood, t = 5 min, n = 3) [%ID/g] | maximum value in brain ([1]; brain, 1 h after administration) [%ID/g] | accumulation in kidneys ([1]; kidneys, t = 5 min) [% ID/g] | accumulation in liver ([1]; liver, t = 5 min) [% ID/g] | accumulation in small intestine (peak) ([1]; small intestine, peak at t = 1–6 h) | displacement of [131I]IDIF (TTR) [%] |
| --- | --- | --- | --- | --- | --- | --- |
| O=C(O)c1cc(-c2ccc(F)cc2F)cc([131I])c1O [[^131I]IDIF, [^131I]iododiflunisal] | 23.3 ± 7.6 | 0.05 | 14.9 ± 3.0 | 20.0 ± 5.5 | ca. 15 % ID/g |  |
| O=C(O)c1cc(-c2ccc(F)cc2F)cc(I)c1O [IDIF, iododiflunisal] |  |  |  |  |  | > 97 |
